The values below come from patent publication US10196609B2, “Composition for promoting cardiac differentiation of pluripotent stem cell comprising EGFR inhibitor” (Kyoto University, priority 2013, dated 2019).

The test system of one assay is Monkey ES cells. Description: Cardiac differentiation of monkey ES cells (α-MHC promoter-GFP) in adhesion culture, GFP fluorescence by HCS. In kind it is cell-based. To be noted: for effect of promoting cardiac differentiation (GFP fluorescence): added Days 4-8 together with KYO2111 (10 µM), AG1478 20 μM, read at Day 10, FIGS. 1-3. On the procedure: At Day 10 of culture, compounds that enhanced GFP fluorescence were identified by measuring GFP fluorescence with HCS (high contents screening) system (Olympus IX81 inverted microscope and Molecular device/MetaMorph imaging system).
During Days 4-8 of culture KYO2111 (10 μM) and PP3 (3 μM, 10 μM, 30 μM, or 100 μM) were added.

The test system of a further assay is human ES cells (KhES-3). Description: Cardiac differentiation of human ES cells in floating culture, percentage of cTnT-positive cardiomyocytes by flow cytometry. In kind it is cell-based. The conditions noted are these: for effect to promote cardiac differentiation in combination with XAV939 only: XAV+AG1478 or gefitinib; for effect to promote cardiac differentiation in combination with XAV939 only / effect to promote cardiac differentiation by itself: human ES or iPS cells, cell line not stated, FIG. 8; for effect to promote cardiac differentiation by itself: without addition of KYO2111 and XAV939. The procedure:
(§1) Human ES cells or iPS cells subcultured with mouse feeder cells were collected. Colonies of the human ES cells or iPS cells (3-10×10^6 cells/well) were plated on 6-well plates of Ultra-low culture dish (CORNING 3261), and cultured in an IMDM-based medium having a defined composition (IMDM (Sigma) containing 1% MEM non-essential amino acid solution (Sigma), 1% penicillin-streptomycin (Gibco), 2 mM L-glutamine (Sigma), 0.5 mM L-carnitine (Sigma), 0.001% 2-mercaptoethanol (Gibco), and 0.4% human serum albumin (Sigma)) in floating culture for 30 days (FIG. 5). During Days 0-2 of culture (for 2 days), CHIR99021 (Axon) (4 μM) and BIO (Calbiochem) (1 μM) were added, and during Days 3-9 of culture (for 6 days) KYO2111 (10 μM) and XAV939 (1 μM) were added. […] The cardiac differentiation was evaluated by analyzing the percentage of cardiomyocytes with flow cytometry using an antibody against cardiac troponin T (cTnT), a specific marker of cardiac muscle at Day 30 of culture.
On the technique in general: Flow cytometry measures light scatter and fluorescence of single cells or particles in a stream.

In assay [1] the test system is human iPS cells (IMR90-1). Kind of assay: Cardiac differentiation of human iPS cells in floating culture, percentage of cTnT-positive cardiomyocytes by flow cytometry. The format is cell-based. To be noted: 5-20 μM added Days 2-9 of culture, FIG. 7. On the procedure: as §1
Another assay relates to Human iPS cells (253G1). Kind of assay: Cardiac differentiation of human iPS cells in feeder-free sphere culture, cTnT flow cytometry. The format is cell-based. The conditions noted are these: 10 μM Days 3-9 in addition to KYO2111 (10 μM) and XAV939 (1 μM); Day 30; increased from 34% without EGFR inhibitor; FIG. 9. On the procedure: Human iPS cells (253G1) were cultured in sphere culture without feeder cells (feeder-free sphere culture). In detail, 253G1 cells subcultured with mouse feeder cells were collected, the cell cluster was passed through […] (CellTrics, PARTEC04004-2327) to give uniform cell clusters having the size of 80-120 μm, the cells were plated in 6-well plates of Ultra-low culture dish (CORNING 3261) and cultured in mTeSR1 medium (Stem Cell Technology 05850) containing 3% methylcellulose (R&D, HSC001) in floating culture until the size of the colonies of the iPS cells arrived at about 200-300 μm. The cells were subcultured more than 20 times by repeating the steps of this feeder-free sphere culture. The medium was replaced with an IMDM-based medium having a defined composition (IMDM (Sigma) containing 1% MEM non-essential amino acid solution (Sigma), 1% penicillin-streptomycin (Gibco), 2 mM L-glutamine (Sigma), 0.5 mM L-carnitine (Sigma), 0.001% 2-mercaptoethanol (Gibco), and 0.4% human serum albumin (Sigma)) and the cells were cultured in floating culture for 30 days (FIG. 5). […] The cardiac differentiation was evaluated by analyzing the percentage of cardiomyocytes with flow cytometry using an antibody against cardiac troponin T (cTnT), a specific marker of cardiac muscle at Day 30 of culture.

Another assay deals with Src kinase (Homo sapiens, UniProt P12931). To be noted: cited from earlier work.
Assay [2] is described as follows: Effect to promote cardiac differentiation by the methods of WO2012/026491. In kind it is cell-based. The conditions noted are these: methods described in the Examples of WO2012/026491. The source says:
The effect of SO3031 (KY01-I), SO2031 (KY02-I), SO3042 (KY03-I), and SO2077 to promote cardiac differentiation was confirmed by the methods described in the Examples of WO2012/026491.

Chain of Src kinase (P12931 whole entry): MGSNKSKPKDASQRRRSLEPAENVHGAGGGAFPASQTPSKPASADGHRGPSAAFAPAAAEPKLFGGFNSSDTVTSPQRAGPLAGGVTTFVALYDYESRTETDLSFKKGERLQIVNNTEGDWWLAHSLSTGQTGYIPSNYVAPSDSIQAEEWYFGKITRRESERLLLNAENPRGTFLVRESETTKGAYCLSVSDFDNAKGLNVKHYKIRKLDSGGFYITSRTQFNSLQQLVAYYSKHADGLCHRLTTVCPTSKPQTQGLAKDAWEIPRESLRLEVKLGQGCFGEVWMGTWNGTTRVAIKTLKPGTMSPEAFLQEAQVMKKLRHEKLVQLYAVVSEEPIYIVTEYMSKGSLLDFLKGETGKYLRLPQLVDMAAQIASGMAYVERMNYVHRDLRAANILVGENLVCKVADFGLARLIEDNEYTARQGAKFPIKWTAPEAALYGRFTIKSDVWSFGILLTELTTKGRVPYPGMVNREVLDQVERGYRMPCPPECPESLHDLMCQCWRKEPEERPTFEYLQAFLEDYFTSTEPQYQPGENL

As to `COc1cc2ncnc(Nc3cccc(Cl)c3)c2cc1OC` [AG1478], in the assay with Monkey ES cells (Wnt signaling inhibitor KYO2111 added together, FIG. 4), the “synergistic promotion of cardiac differentiation with KYO2111” value was “synergistically promoted cardiac differentiation”. Besides, the “synergistic promotion of cardiac differentiation with XAV939” value in the assay on Monkey ES cells (Wnt signaling inhibitor XAV939 added together, FIG. 4) was “synergistically promoted cardiac differentiation”. In addition, in the assay with Monkey ES cells, the “effect of promoting cardiac differentiation (GFP fluorescence)” value is recorded as “had the effect of promoting cardiac differentiation”. The percentage of cardiomyocytes in the assay on human ES cells (KhES-3) (20 μM, Days 2-9, stated for human ES (KhES-3) and iPS (IMR90-1) cells together, Day 30, FIG. 7) is given as 92-95%; in the assay with Human iPS cells (253G1) it was “about 50%”. The cardiac differentiation efficiency result was “the cardiac differentiation efficiency was increased” with human ES cells (KhES-3) (5-20 μM added Days 2-9 of culture, KhES-3, FIG. 7) and “the cardiac differentiation efficiency was increased” in assay [1]. The “effect to promote cardiac differentiation in combination with XAV939 only” value in the assay on human ES cells (KhES-3) was “produced an effect to promote cardiac differentiation”. Further, the “effect to promote cardiac differentiation by itself” value in the assay with human ES cells (KhES-3) is given as “produced an effect to promote cardiac differentiation”.

Regarding `Nc1ncnc2c1cnn2-c1ccccc1` [PP3], the “enhancement of the effect of KYO2111 to promote cardiac differentiation” value in the assay with Monkey ES cells (PP3 3, 10, 30 or 100 μM with KYO2111 (10 μM), Days 4-8, FIG. 10) is recorded as “enhance the effect of KYO2111 to promote cardiac differentiation”. On Src kinase, the “inhibitory effect on Src kinase” value is “no inhibitory effect”.

Regarding `COc1ccc(CCC(=O)Nc2nc3ccc(I)cc3s2)cc1OC` [SO2031, 2-(3-(3,4-dimethoxyphenyl)propanamide)-6-iodobenzothiazole], the “effect to promote cardiac differentiation” value in assay [2] is “confirmed”.

`CCCOc1ccc(CCC(=O)Nc2nc3ccc(I)cc3s2)cc1OC` [SO2077, 2-(3-(3-methoxy-4-propoxyphenyl)propanamide)-6-iodobenzothiazole]: the “effect to promote cardiac differentiation” value in assay [2] is given as “confirmed”.

Regarding `COc1ccc(CC(=O)Nc2nc3ccc(I)cc3s2)cc1OC` [SO3031, 2-(2-(3,4-dimethoxyphenyl)acetamide)-6-iodobenzothiazole], the “effect to promote cardiac differentiation” value in assay [2] is on record as “confirmed”.

For `COc1ccc(CCCC(=O)Nc2nc3ccc(I)cc3s2)cc1OC` [SO3042, 2-(4-(3,4-dimethoxyphenyl)butanamide)-6-iodobenzothiazole], the “effect to promote cardiac differentiation” value in assay [2] is on record as “confirmed”.

With `COc1cc2ncnc(Nc3ccc(F)c(Cl)c3)c2cc1OCCCN1CCOCC1` [gefitinib], the “effect of promoting cardiac differentiation (GFP fluorescence)” value with Monkey ES cells was “have the effect of promoting cardiac differentiation”. In addition, in the assay with human ES cells (KhES-3) (10 μM added Days 0-2 of culture, with CHIR99021+BIO Days 0-2, KYO2111+XAV939 Days 3-9, Day 30, FIG. 6), the “promotion of cardiac differentiation” value is “did not promote cardiac differentiation”. In addition, in the assay with human ES cells (KhES-3), the “effect to promote cardiac differentiation in combination with XAV939 only” value is recorded as “produced an effect to promote cardiac differentiation” and the “effect to promote cardiac differentiation by itself” value is recorded as “produced an effect to promote cardiac differentiation”. In addition, in the assay with Human iPS cells (253G1), the percentage of cardiomyocytes result is “about 50%”.
